Data published in ChEMBL document CHEMBL5724558, “Image-based profiling of drug vulnerabilities in CRC organoids” (2024).
“And” between values parts separate entries of the source, which are not always exact repeats. Equal values may be shown once. Square brackets hold non-standard residues; d marks the D form. Peptide text beside a SMILES is read from it. Arg(Me) = CNC(=N)NCCC[C@H](N)C(=O)O; d4Pal = N[C@H](Cc1ccncc1)C(=O)O; azaGly = NNC(=O)O

How the values were obtained:
Format in all cases: functional, Homo sapiens
Parameters in all cases: dose or concentration left out as unconfirmed
Colon cancer organoid [1] = test: Image-based profiling of donated chemical probes and chemogenomic kinase set in O06 CRC organoid. Image analysis is performed on the sum area metric, and the data were normalized to the DMSO control. After imaging the organoid viability is measured using the OneGloEX Luciferase Assay System. The normalized viability data and sum area are reported.
Colon cancer organoid [2] = test: Image-based profiling of donated chemical probes and chemogenomic kinase set in O21 CRC organoid. Image analysis is performed on the sum area metric, and the data were normalized to the DMSO control. After imaging the organoid viability is measured using the OneGloEX Luciferase Assay System. The normalized viability data and sum area are reported.
Colon cancer organoid [3] = test: Image-based profiling of donated chemical probes and chemogenomic kinase set in O09 CRC organoid. Image analysis is performed on the sum area metric, and the data were normalized to the DMSO control. After imaging the organoid viability is measured using the OneGloEX Luciferase Assay System. The normalized viability data and sum area are reported.

Row | Compound | Cell Viability (Colon cancer organoid [1]; Replication number 1) | Cell Viability (Colon cancer organoid [1]; Replication number 2) | Cell Viability (Colon cancer organoid [2]; Replication number 1) | Cell Viability (Colon cancer organoid [2]; Replication number 2) | Cell Viability (Colon cancer organoid [3]; Replication number 1) | Cell Viability (Colon cancer organoid [3]; Replication number 2)
1 | CN(C)C(=O)/C(C#N)=C/c1ccc(-c2nc3cnc4[nH]ccc4c3n2C2CCCCC2)o1 | 174.281% and 154.216% | 123.709% and 122.376% | 101.13% and 96.3421% | 107.991% and 97.4755% | 104.012% and 103.69% | 101.367% and 106.659%
2 | CCCc1cc(C)[nH]c(=O)c1CNC(=O)c1cc(-c2ccnc(N3CCN(C)CC3)c2)cc2c1cnn2C(C)C | 109.583% and 102.443% | 141.979% and 116.144% | 85.4576% and 83.4749% | 100.02% and 92.3628% | 138.622% and 115.688% | 134.993% and 114.602%
3 | CN1C[C@H](Nc2cnn(C)c(=O)c2Br)C[C@H](c2ccccc2)C1 | 155.67% and 115.973% | 127.596% and 115.428% | 130.754% and 116.395% | 102.417% and 96.6587% | 140.201% and 85.3168% | 101.083% and 86.6646%
4 | COc1cccc2c1C(=O)c1c(O)c3c(c(O)c1C2=O)CC(O)(C(=O)CO)CC3OC1CC(N)C(O)C(C)O1.Cl (centres undefined) | 10.231% and 27.4494% |  | 24.67% and 46.8716% | 19.9524% and 41.0435% | 17.7261% | 21.2234%
5 | COc1ccccc1C(=O)Nc1cc2c(cc1N1CCCC1)n(C)c(=O)n2C | 152.076% and 120.081% | 178.087% and 127.616% | 97.0271% and 91.1169% | 104.009% and 97.7327% | 131.649% and 89.49% | 142.608% and 94.0767%
6 | CC#CC(=O)N1CCC[C@H]1c1nc(-c2ccc(C(=O)Nc3ccccn3)cc2)c2c(N)nccn12 [ACALABRUTINIB] | 108.483% and 104.159% | 68.1537% and 91.7224% | 90.1303% and 116.516% | 93.0581% and 134.149% | 72.6716% and 83.0294% | 131.144% and 94.2129%
7 | CCC(=N\O)/C(C)=C/c1ccc(F)c(C)c1 [A-226] | 97.0228% and 105.855% | 79.4149% and 80.7818% | 109.207% and 89.6507% | 103.65% and 86.2245% | 100.912% and 93.6554% | 132.086% and 110.405%
8 | COc1cc(-c2cn([C@H]3CCc4ccccc4N(CC(F)(F)F)C3=O)nn2)ccc1-n1ccc(C)n1 | 93.8708% and 97.1897% | 92.3722% and 127.214% | 95.5395% and 92.5614% | 105.607% and 89.2857% | 31.4153% and 64.0297% | 67.1931% and 101.059%
9 | COc1cc2c(cc1NS(=O)(=O)c1ccc(Br)cc1C)n(C)c(=O)n2C | 85.4589% and 143.275% | 107.386% and 104.912% | 90.5613% and 147.551% | 87.5695% and 113.305% | 82.8669% and 66.0742% | 161.71% and 111.182%
10 | CCC(F)(F)c1cc(N2CCC(S(C)(=O)=O)CC2)nc2sc(C(N)=O)c(N)c12 [BI-605906] | 130.001% and 116.599% | 81.7833% and 117.011% | 102.215% and 104.22% | 98.7028% and 111.659% | 110.631% and 99.0371% | 105.468% and 104.877%
11 | CCC(=O)Nc1cccc(Oc2nc(Nc3ccc(N4CCN(C)CC4)cc3OC)ncc2Cl)c1 | 127.075% and 113.507% | 91.2646% and 89.6658% | 76.6045% and 88.0836% | 80.6193% and 93.271% | 45.1468% and 48.3715% | 57.9255% and 59.3892%
12 | CCCS(=O)(=O)c1nc(NC2CC2)cc(-c2ccc3c(ccn3C3CC(C)(C)NC(C)(C)C3)c2)n1 | 33.8005% and 71.7584% | 41.5782% and 52.8147% | 108.157% and 124.037% | 90.7114% and 110.084% | 90.8161% and 100.386% | 72.9195% and 100.634%
13 | C[C@H]1CC(=O)Nc2cc(C(=O)NCCC3CC3)ccc2N1C(=O)N1CC2CC2C1 (some centres undefined) | 181.689% and 143.275% | 157.26% and 132.873% | 104.914% and 116.982% | 77.8753% and 111.158% | 82.587% and 82.5348% | 120.178% and 115.743%
14 | COc1ncc(-c2ccc3nccc(-c4ccnnc4)c3c2)cc1NS(=O)(=O)c1ccc(F)cc1F [OMIPALISIB] | 2.947% and 9.014% | 1.718% and 5.799% | 14.5309% and 34.1185% |  | 14.1746% and 4.189% | 12.1613% and 4.9671%
15 | CC(=O)N1CCC(c2ccc(C(=O)NC3=NCCN3)cc2C(F)(F)F)CC1 [BI 0054] | 118.453% and 112.646% | 54.9204% and 58.7504% | 108.593% and 93.1436% | 106.585% and 84.6939% | 145.728% and 140.005% | 185.058% and 111.866%
16 | CCNC(=O)c1cc2c(N3CCOC[C@@H]3C)ccnc2n1C | 97.9107% and 98.1265% | 90.7853% and 98.7859% | 124.621% and 105.951% | 105.072% and 92.3469% | 131.24% and 98.4338% | 151.747% and 108.945%
17 | CNC(=N)NCCC[C@H](NC(=O)[C@H](CC(C)C)NC(=O)NNC(=O)[C@H](Cc1ccccc1)NC(=O)[C@H](CO)NC(=O)[C@H](CC(N)=O)NC(=O)[C@@H](Cc1ccncc1)NC(=O)[C@H](N)Cc1ccc(O)cc1)C(=O)N[C@@H](Cc1ccccc1)C(N)=O [KISS1-305] (H-[dY][d4Pal]NSF[azaGly]L[Arg(Me)]F-NH2) | 103.915% and 128.337% | 108.799% and 104.471% | 121.353% and 98.3829% | 105.015% and 111.735% | 111.929% and 98.6727% | 102.809% and 106.608%
18 | Cl.Cl.NC1(c2ccc(-c3nc4ccn5c(=O)[nH]nc5c4cc3-c3ccccc3)cc2)CCC1 | 82.4513% and 94.6892% | 74.7027% and 107.425% | 81.7246% and 91.8083% | 79.6922% and 92.9418% | 47.4878% and 37.8628% | 66.6317% and 37.3678%
19 | CCOC(=O)CCNc1cc(N2CCc3ccccc3CC2)nc(-c2cccnc2)n1 | 133.48% and 94.953% | 206.72% and 136.936% | 67.1414% and 86.4141% | 103.603% and 97.7327% | 137.493% and 102.473% | 150.843% and 118.309%
20 | Cc1ccc2nc(CNCCCOc3ccccc3)cc(O)c2c1 [UCSF924] | 116.607% and 123.644% | 89.7333% and 84.3345% | 109.248% and 108.585% | 100.134% and 96.363% | 89.1468% and 105.602% | 80.3683% and 95.5591%
21 | Cc1cc(NC(=O)c2cccc(S(F)(F)(F)(F)F)c2)cc(-n2ccn3nc(-c4cccnc4)cc23)c1 [BAY-309] | 100.937% and 113.583% | 92.9473% and 106.13% | 93.9876% and 96.6365% | 97.5385% and 109.184% | 161.366% and 84.5766% | 126.224% and 101.643%
